Source: patent US20240277713A1 (Kadmon Corporation, LLC, priority 2022, published 2024)
Marks after values point to notes of the source that are not given here.

Tested on: New Zealand White rabbits
Experiment: Embryo-fetal developmental toxicity study in New Zealand White rabbits (Example 4);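 also: dams given a detailed clinical exam daily GD 6 to 29, about 4 h after dosing, then laparohysterectomy on GD 29 with external, visceral and skeletal fetal examination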

Compound: CC(C)NC(=O)COc1cccc(-c2nc(Nc3ccc4[nH]ncc4c3)c3ccccc3n2)c1 [belumosudil, 2-{3-[4-(1H-indazol-5-ylamino)-2-quinazolinyl]phenoxy}-N-(propan-2-yl) acetamide]
- Hair sparse, Forefoot/right, times observed/animals affected (125 mg base/kg/day, GD 0-29): 0/0
- Hair sparse, Forelimb/left, times observed/animals affected (125 mg base/kg/day, GD 0-29): 4/1
- Hair sparse, Hind limb/left, times observed/animals affected (125 mg base/kg/day, GD 0-29): 0/0
- Hair sparse, Inguinal region/right, times observed/animals affected (125 mg base/kg/day, GD 0-29): 4/1
- Hair sparse, Shoulder/left, times observed/animals affected (125 mg base/kg/day, GD 0-29): 2/1
- Hair sparse, Thoracic region, times observed/animals affected (125 mg base/kg/day, GD 0-29): 2/1
- Hair sparse, Ventral surface, times observed/animals affected (125 mg base/kg/day, GD 0-29): 19/1
- Material in pan/bedding, Red, times observed/animals affected (125 mg base/kg/day, GD 0-29): 2/1
- Nail missing, Forefoot/left, times observed/animals affected (125 mg base/kg/day, GD 0-29): 0/0
- Scabbed area, Ear/left, times observed/animals affected (125 mg base/kg/day, GD 0-29): 0/0
- Scabbed area, Nose/muzzle, times observed/animals affected (125 mg base/kg/day, GD 0-29): 0/0
- Skin discolored, Pale, Entire body, times observed/animals affected (125 mg base/kg/day, GD 0-29): 0/0
- Swelling, Nose/muzzle, times observed/animals affected (125 mg base/kg/day, GD 0-29): 0/0
- Swelling, Vulva, times observed/animals affected (125 mg base/kg/day, GD 0-29): 0/0
- Thin, times observed/animals affected (125 mg base/kg/day, GD 0-29): 0/0
- Fetal Body Weight Genders Combined, % Difference From Control (225 mg base/kg/day): −5.76%
- Fetal External Malformation: Short Tail, No. Fetuses (incidence) (225 mg base/kg/day): 5 (3.2)
- Fetal External Malformation: Short Tail, No. Litters (incidence) (225 mg base/kg/day): 2 (10.5)
- Fetal External Malformations, No. Fetuses (incidence) (225 mg base/kg/day): 5 (3.2)
- Fetal External Malformations, No. Litters (incidence) (225 mg base/kg/day): 2 (10.5)
- Fetal Skeletal Malformations, No. Fetuses (incidence) (225 mg base/kg/day): 19 (12.2)
- Fetal Skeletal Malformations, No. Litters (incidence) (225 mg base/kg/day): 10 (52.6)
- Fetal Visceral Variations, No. Fetuses (incidence) (225 mg base/kg/day): 12 (7.7)
- Fetal Visceral Variations, No. Litters (incidence) (225 mg base/kg/day): 8 (42.1)
- Maternal Body Weight Change GD 0-29, % Difference From Control (225 mg base/kg/day): −24.2%
- Maternal Body Weight GD 10, % Difference From Control (225 mg base/kg/day): −6.3%
- Maternal Body Weight GD 13, % Difference From Control (225 mg base/kg/day): −8.0%
- Maternal Body Weight GD 16, % Difference From Control (225 mg base/kg/day): −9.2%
- Maternal Body Weight GD 19, % Difference From Control (225 mg base/kg/day): −8.4%
- Maternal Body Weight GD 21, % Difference From Control (225 mg base/kg/day): −6.7%
- Maternal Food Consumption GD 0-29 (225 mg base/kg/day): 119.80
- Maternal Food Consumption GD 0-29, % Difference From Control (225 mg base/kg/day): −17.8%
- Maternal Food Consumption GD 6-10 (225 mg base/kg/day): 61.2^b
- Maternal Food Consumption GD 6-19 (225 mg base/kg/day): 78.70
- Maternal Food Consumption GD 6-19, % Difference From Control (225 mg base/kg/day): −49.7%
- Maternal Food Consumption GD 19-29 (225 mg base/kg/day): 155.3^b
- Mean Fetal Body Weight Females (225 mg base/kg/day): 38.94 g
- Mean Fetal Body Weight Genders Combined (225 mg base/kg/day): 38.60 g
- Mean Fetal Body Weight Males (225 mg base/kg/day): 38.92 g
- Mean Live Litter Size (225 mg base/kg/day): 7.4
- Mean Number of Early Resorptions (225 mg base/kg/day): 1.4^a
- Mean Number of Resorptions (Combined) (225 mg base/kg/day): 1.5^a
- Mean Postimplantation Loss (225 mg base/kg/day): 17.72 %/Litter
- Number Litters with Viable Fetuses GD29 (225 mg base/kg/day): 19
- Number with All Resorptions GD29 (225 mg base/kg/day): 2
- cervical vertebra(e) centra, hemicentra, fetal incidence (225 mg base/kg/day): 2.6%
- cervical vertebra(e) centra, hemicentra, litter incidence (225 mg base/kg/day): 21.1%
- neural arches (thoracic) fused, fetal incidence (225 mg base/kg/day): 1.9%
- neural arches (thoracic) fused, litter incidence (225 mg base/kg/day): 10.5%
- neural arches (thoracic) misaligned, fetal incidence (225 mg base/kg/day): 1.3%
- neural arches (thoracic) misaligned, litter incidence (225 mg base/kg/day): 10.5%
- neural arches (thoracic) misshapen, fetal incidence (225 mg base/kg/day): 2.6%
- neural arches (thoracic) misshapen, litter incidence (225 mg base/kg/day): 21.1%
- rib(s) branched, fetal incidence (225 mg base/kg/day): 2.6%
- rib(s) branched, litter incidence (225 mg base/kg/day): 21.2%
- rib(s) fused, fetal incidence (225 mg base/kg/day): 2.6%
- rib(s) fused, litter incidence (225 mg base/kg/day): 15.8%
- rib(s) misshapen, fetal incidence (225 mg base/kg/day): 1.9%
- rib(s) misshapen, litter incidence (225 mg base/kg/day): 15.8%
- short tail (entire), fetal incidence (225 mg base/kg/day): 3.2%
- short tail (entire), litter incidence (225 mg base/kg/day): 10.5%
- sternebra(e) extra, fetal incidence (225 mg base/kg/day): 4.5%
- sternebra(e) extra, litter incidence (225 mg base/kg/day): 21.1%
- sternebra(e) fused, fetal incidence (225 mg base/kg/day): 4.5%
- sternebra(e) fused, litter incidence (225 mg base/kg/day): 31.6%
- tail bent (entire), fetal incidence (225 mg base/kg/day): 1.3%
- tail bent (entire), litter incidence (225 mg base/kg/day): 5.3%
- ureter malpositioned, litter incidence (225 mg base/kg/day): 26.3%
- Number Aborted (225 mg base/kg/day, 23 females): 1
- Number Died (225 mg base/kg/day, 23 females): 1
- Number Litters with Viable Fetuses GD29 (225 mg base/kg/day, 23 females): 19
- Number Not Pregnant (225 mg base/kg/day, 23 females): 0
- Number with All Resorptions GD29 (225 mg base/kg/day, 23 females): 2
- Activity decreased, times observed/animals affected (225 mg base/kg/day, GD 0-29): 4/1
- Feces few/absent, times observed/animals affected (225 mg base/kg/day, GD 0-29): 0/0
- Hair discolored, Brown, Anogenital region, times observed/animals affected (225 mg base/kg/day, GD 0-29): 0/0
- Hair discolored, Brown, Ear/left, times observed/animals affected (225 mg base/kg/day, GD 0-29): 0/0
- Hair discolored, Brown, Ear/right, times observed/animals affected (225 mg base/kg/day, GD 0-29): 0/0
- Hair discolored, Brown, Face, times observed/animals affected (225 mg base/kg/day, GD 0-29): 12/2
- Hair discolored, Brown, Hind limb/left, times observed/animals affected (225 mg base/kg/day, GD 0-29): 1/1
- Hair discolored, Red, Anogenital region, times observed/animals affected (225 mg base/kg/day, GD 0-29): 0/0
- Hair discolored, Red, Face, times observed/animals affected (225 mg base/kg/day, GD 0-29): 0/0
- Hair discolored, Red, Forelimb/left, times observed/animals affected (225 mg base/kg/day, GD 0-29): 0/0
- Hair discolored, Red, Thoracic region, times observed/animals affected (225 mg base/kg/day, GD 0-29): 0/0
- Hair discolored, Yellow, Ear/right, times observed/animals affected (225 mg base/kg/day, GD 0-29): 0/0
- Hair discolored, Yellow, Face, times observed/animals affected (225 mg base/kg/day, GD 0-29): 14/2
- Hair sparse, Anogenital region, times observed/animals affected (225 mg base/kg/day, GD 0-29): 0/0
- Hair sparse, Axillary region/left, times observed/animals affected (225 mg base/kg/day, GD 0-29): 3/1
- Hair sparse, Axillary region/right, times observed/animals affected (225 mg base/kg/day, GD 0-29): 2/1
- Hair sparse, Cervical region, times observed/animals affected (225 mg base/kg/day, GD 0-29): 0/0
- Hair sparse, Ear/left, times observed/animals affected (225 mg base/kg/day, GD 0-29): 0/0
- Hair sparse, Ear/right, times observed/animals affected (225 mg base/kg/day, GD 0-29): 0/0
- Hair sparse, Forefoot/left, times observed/animals affected (225 mg base/kg/day, GD 0-29): 3/1
- Hair sparse, Forefoot/right, times observed/animals affected (225 mg base/kg/day, GD 0-29): 5/2
- Hair sparse, Forelimb/left, times observed/animals affected (225 mg base/kg/day, GD 0-29): 0/0
- Hair sparse, Hind limb/left, times observed/animals affected (225 mg base/kg/day, GD 0-29): 8/1
- Hair sparse, Inguinal region/right, times observed/animals affected (225 mg base/kg/day, GD 0-29): 0/0
- Hair sparse, Shoulder/left, times observed/animals affected (225 mg base/kg/day, GD 0-29): 0/0
- Hair sparse, Thoracic region, times observed/animals affected (225 mg base/kg/day, GD 0-29): 1/1
- Hair sparse, Ventral surface, times observed/animals affected (225 mg base/kg/day, GD 0-29): 0/0
- Material in pan/bedding, Red, times observed/animals affected (225 mg base/kg/day, GD 0-29): 2/2
- Nail missing, Forefoot/left, times observed/animals affected (225 mg base/kg/day, GD 0-29): 0/0
- Scabbed area, Ear/left, times observed/animals affected (225 mg base/kg/day, GD 0-29): 0/0
- Scabbed area, Nose/muzzle, times observed/animals affected (225 mg base/kg/day, GD 0-29): 0/0
- Skin discolored, Pale, Entire body, times observed/animals affected (225 mg base/kg/day, GD 0-29): 11/1
- Swelling, Nose/muzzle, times observed/animals affected (225 mg base/kg/day, GD 0-29): 0/0
- Swelling, Vulva, times observed/animals affected (225 mg base/kg/day, GD 0-29): 2/1
- Thin, times observed/animals affected (225 mg base/kg/day, GD 0-29): 38/5
- NOAEL for maternal and developmental toxicity (pregnant rabbits): 50 mg base/kg/day
- doses at which embryo-fetal effects were observed (abortion, post-implantation loss, malformations, decreased fetal body weight) (pregnant rabbits, oral): ≥ 50 mg/kg/day
- doses at which maternal toxicity (body weight loss and mortality) was observed (pregnant rabbits, oral, organogenesis): ≥ 125 mg/kg/day
